The record followed here is PubChem BioAssay (NCI).

Some test systems named below: KM12 colon; NCI-H522 lung; MDA-MB-435; M14 melanoma; HT29 colon; IGROV1 ovarian; SF-539 CNS; HCT-15 colon; TK-10 renal; SF-295 CNS; HCC-2998 colon; MOLT-4 leukemia; K-562 leukemia; A498 renal; HOP-92 NSCLC; RPMI-8226 leukemia; OVCAR-5 ovarian.
Holding throughout (assay): DTP human tumour cell line panel, 48 h

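96-well plates; 48 h exposure; 5 concentrations. Endpoints by linear interpolation between flanking doses. Not reached: highest tested concentration assigned. At the TGI there is no net growth.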 Where only a bound is given, the exact number is not on record here.

`N#CC1=C(N)OC(c2ccc([N+](=O)[O-])cc2)C1(C#N)C#N` (centres undefined): the TGI in the assay on KM12 colon is above 48.4 µM; in the assay on NCI-H522 lung, 17.8 µM; in the assay with MDA-MB-435, above 50.4 µM; with M14 melanoma it was 38.9 µM; with HT29 colon, 22.9 µM; with IGROV1 ovarian, 31.1 µM. Besides, the TGI with SF-539 CNS was 32.1 µM; with HCT-15 colon, 27.4 µM; in the assay with TK-10 renal it was 26.7 µM; in the assay with SF-295 CNS it was above 71.3 µM; in the assay on HCC-2998 colon, 23.5 µM; in the assay on MOLT-4 leukemia, 63.3 µM. Moreover, the TGI is above 100 µM in the assay with K-562 leukemia; 27.8 µM with A498 renal; 21.9 µM in the assay with HOP-92 NSCLC; 18.7 µM in the assay on RPMI-8226 leukemia; 41.8 µM in the assay with OVCAR-5 ovarian.

On to `O=c1[nH]nc(Cc2ccc(Cl)cc2)n1/N=C\CC/C=N\n1c(Cc2ccc(Cl)cc2)n[nH]c1=O`, for which the TGI with KM12 colon was above 100 µM; with NCI-H522 lung, above 100 µM; in the assay on MDA-MB-435 it was above 100 µM; in the assay on M14 melanoma, above 100 µM; in the assay with HT29 colon, above 100 µM; in the assay with IGROV1 ovarian it was 41.3 µM. In addition, the TGI with SF-539 CNS is 40.6 µM; in the assay on HCT-15 colon, above 100 µM; in the assay with TK-10 renal it was above 100 µM; in the assay with SF-295 CNS, above 78.1 µM; with HCC-2998 colon, above 100 µM; with MOLT-4 leukemia, above 96.5 µM. The TGI in the assay with K-562 leukemia, with A498 renal, in the assay with HOP-92 NSCLC, with RPMI-8226 leukemia and in the assay on OVCAR-5 ovarian was above 100 µM in each case.

As to `CC(C)NC(=O)OCc1c(COC(=O)NC(C)C)n(C)c2c1ccc1ccccc12`, the TGI in the assay on KM12 colon was 15.5 µM; with NCI-H522 lung it was 0.298 µM; in the assay on MDA-MB-435, 4.9 µM; with M14 melanoma it was 3.2 µM; with HT29 colon it was 13 µM; in the assay on IGROV1 ovarian, 3.23 µM. Also, the TGI was 3.5 µM in the assay with SF-539 CNS; 3.09 µM in the assay on HCT-15 colon; 3.04 µM with TK-10 renal; 17.2 µM with SF-295 CNS; 9.86 µM with HCC-2998 colon; above 25.4 µM in the assay on MOLT-4 leukemia. The TGI was above 20 µM with K-562 leukemia; 3.01 µM in the assay with A498 renal; 2.6 µM in the assay with HOP-92 NSCLC; 3.92 µM with RPMI-8226 leukemia; 7.43 µM with OVCAR-5 ovarian.

With `O=C(Cc1ccc(Cl)c(Cl)c1)N(CCc1ccc(Cl)c(Cl)c1)CCN1CCCC1`, the TGI with KM12 colon was 3.67 µM; with NCI-H522 lung, 3.3 µM; with MDA-MB-435, 3.38 µM; in the assay with M14 melanoma it was 3.56 µM; with HT29 colon, 3.56 µM; in the assay with IGROV1 ovarian it was 3.27 µM. Besides, the TGI in the assay with SF-539 CNS stood at 3.31 µM; in the assay on HCT-15 colon, 3.7 µM; in the assay on TK-10 renal, 3.22 µM; in the assay with SF-295 CNS it was 3.84 µM; in the assay with HCC-2998 colon it was 3.33 µM; in the assay with MOLT-4 leukemia it was 2.98 µM. Moreover, the TGI was 3.66 µM with K-562 leukemia; 3.45 µM in the assay on A498 renal; 4.74 µM in the assay with HOP-92 NSCLC; 3.62 µM in the assay with RPMI-8226 leukemia; 3.48 µM in the assay with OVCAR-5 ovarian.

For `COc1cc2c(c3c1c(=O)c1ccccc1n3C)C=CC1(CCCCC1)O2`, the TGI with KM12 colon was above 2.21 µM; in the assay on NCI-H522 lung, above 10 µM; in the assay on MDA-MB-435 it was 6.42 µM; in the assay with M14 melanoma, 7.92 µM; in the assay with HT29 colon, above 10 µM; in the assay on IGROV1 ovarian, above 10 µM. Also, the TGI is above 7.22 µM in the assay on SF-539 CNS; above 10 µM in the assay with HCT-15 colon; above 10 µM in the assay on TK-10 renal; 4.7 µM in the assay on SF-295 CNS; above 10 µM in the assay on HCC-2998 colon; above 10 µM in the assay with MOLT-4 leukemia. For the same molecule, the TGI in the assay on K-562 leukemia was 6.36 µM; with A498 renal, above 9.61 µM; in the assay with HOP-92 NSCLC, 9.77 µM; in the assay with RPMI-8226 leukemia it was above 5.04 µM; with OVCAR-5 ovarian it was above 10 µM.

For the molecule `COc1cccc(N2C(=O)CSC2c2cc(OC)c(OC)c(OC)c2)c1` (centres undefined), the TGI is above 100 µM in the assay with KM12 colon; 90.4 µM in the assay on NCI-H522 lung; 17.6 µM in the assay on MDA-MB-435; above 100 µM with M14 melanoma; above 100 µM in the assay with HT29 colon; above 100 µM in the assay on IGROV1 ovarian. In addition, the TGI in the assay with SF-539 CNS was above 100 µM; in the assay on HCT-15 colon it was above 100 µM; in the assay with TK-10 renal, above 100 µM; with SF-295 CNS it was 97.8 µM; with HCC-2998 colon, 85.2 µM; in the assay on MOLT-4 leukemia, above 100 µM. Further, the TGI with K-562 leukemia, in the assay with A498 renal, in the assay on HOP-92 NSCLC, in the assay with RPMI-8226 leukemia and in the assay with OVCAR-5 ovarian was above 100 µM in each case.

In the case of `CC(C)n1c2c([n+](C)c1/C=C/c1ccccc1)C(=O)c1ccccc1C2=O`, the TGI with KM12 colon was 0.975 µM; in the assay with NCI-H522 lung it was 0.15 µM; with MDA-MB-435, 0.547 µM; in the assay with M14 melanoma it was 1.08 µM; in the assay on HT29 colon, 2.18 µM; in the assay on IGROV1 ovarian it was 0.0688 µM. The TGI was determined as 0.363 µM with SF-539 CNS; 23.9 µM in the assay on HCT-15 colon; 2.39 µM with TK-10 renal; 2.52 µM in the assay on SF-295 CNS; 2.06 µM with HCC-2998 colon; 0.745 µM with MOLT-4 leukemia. Moreover, the TGI was found to be 9.61 µM with K-562 leukemia; 2.76 µM in the assay with A498 renal; 1.48 µM with HOP-92 NSCLC; 8.96 µM with RPMI-8226 leukemia; 1.28 µM in the assay with OVCAR-5 ovarian.
